Results published in ChEMBL document CHEMBL4390711, “New phenylpropanoid allopyranosides from the rhizomes of Cimicifuga dahurica” (Bioorg Med Chem Lett, 2019).

System: RAW264.7
Assay: Antiinflammatory activity against mouse RAW264.7 cells assessed as inhibition of LPS-induced PGE2 production preincubated for 1 hr followed by LPS-stimulation and measured after 18 hrs
Type: functional, cell-based

Row | IC50 | Compound
1 | 19.7 µM | COc1cc(/C=C/C(=O)O[C@H](C(=O)O)[C@](O)(Cc2ccc(O)cc2)C(=O)O)ccc1O [CIMICIFUGIC ACID E]
2 | 5.5 µM | C[C@]12CCC(=O)C=C1CC[C@@H]1[C@@H]2[C@@H](O)C[C@@]2(C)[C@H]1CC[C@]2(O)C(=O)CO [HYDROCORTISONE]
3 | 6.33 µM | COc1cc(/C=C/C(=O)NCCc2ccc(O)cc2)ccc1O [N-TRANS-FERULOYL TYRAMINE]
4 | 39.9 µM | COc1cc(/C=C/C(=O)NCCc2ccc(O)c(O)c2)ccc1O [N-TRANS-FERULOYLDOPAMINE]
